Our source for the IC50 values is patent publication US5011992A, “Pharmacologically active substituted benzamides” (Bristol-Myers Squibb Company, priority 1989, dated 1991).

Counter-ions that a name gives are not always drawn.

The experiment concerns the target T1, dopaminergic (D2) receptors (Rattus norvegicus, UniProt P61169).
T1 construct: Homogenates (Brinkmann Polytron) of the corpus striatum in cold HEPES.KOH buffer; from tissue; host or cells: rat corpus striatum (washed membrane homogenate; rats from Charles River)
The experiment in a line: 3H-Spiperone Displacement (striatal rat brain homogenates). The class given is binding. The conditions noted are these: rat striatal homogenate, approx. 100 pM 3H-spiperone, 37° C., 15 min. The protocol: (A) ^3 H-Spiperone Displacement
Rats (150±10 g; Charles River) were decapitated, the corpus striatum dissected out and frozen on dry ice. The tissues were pooled and stored at -80° C. until used. Homogenates (Brinkmann Polytron) of the corpus striatum in cold HEPES.KOH buffer (final pH=7.4) were centrifuged at 39,000× G. The supernatant was discarded and the pellets were re-suspended in HEPES.KOH buffer and re-centrifuged as above.
Tests to determine the Inhibitory Concentration50 (IC50) of the compounds of Formula I and reference compounds versus ^3 H-spiperone were conducted as follows. Tubes containing either 100 μL of buffer mixture (for total binding), 100 μL of buffer mixture plus 100 μL of 10^-4 M D(+)-butaclamol (for blanks, i.e. non-specific binding), or 100 μL of buffer mixture containing 10^-7, 10^-6 or 10^-5 M test compound were prepared. To each were added 100 μL of a solution of ^3 H-spiperone (New England Nuclear) in buffer mixture (2000 c.p.m. in the incubation mixture) and 800 μL of the striatal tissue suspension. The tubes were then diluted to 1 mL with buffer mixture, giving a final concentration of 10^-8, 10^-7 or 10^-6 M test compound and approximately 100 pM ^3 H-spiperone. The samples were incubated at 37° C. for 15 minutes, filtered in vacuo on glass fiber filters and counted by liquid scintillation spectrometry. […] All samples were run in duplicate.

In general, IC50 refers to the concentration at which inhibition is half-maximal. Read a low IC50 as greater potency in that assay.

T1 sequence (P61169 whole entry): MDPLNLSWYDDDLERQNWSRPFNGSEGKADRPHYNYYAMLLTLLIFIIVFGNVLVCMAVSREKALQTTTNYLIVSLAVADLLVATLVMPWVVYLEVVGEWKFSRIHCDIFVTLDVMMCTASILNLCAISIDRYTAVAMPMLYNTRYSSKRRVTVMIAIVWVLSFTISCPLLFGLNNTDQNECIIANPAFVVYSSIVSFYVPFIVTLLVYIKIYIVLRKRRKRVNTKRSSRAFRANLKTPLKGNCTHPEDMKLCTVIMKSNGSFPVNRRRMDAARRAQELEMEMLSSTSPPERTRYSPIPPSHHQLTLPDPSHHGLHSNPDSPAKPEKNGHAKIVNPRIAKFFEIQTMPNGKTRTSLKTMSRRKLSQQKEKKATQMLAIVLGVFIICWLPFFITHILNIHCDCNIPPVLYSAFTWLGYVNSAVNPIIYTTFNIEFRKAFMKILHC

Regarding `CCN(CC)CCNC(=O)c1cc(Cl)c(N)cc1OC(C)C(C)O` (mixture of isomers) [Example 41, 4-Amino-5-chloro-N-2-(diethylamino)ethyl]-2-[(2-hydroxy)but-3-yl]oxybenzamide (mixture of threo and erythro isomers)], the IC50 is above 1 µM.

With `CCN(CC)CCNC(=O)c1cc(Cl)c(N)cc1OCCOC` [Example 1, 4-Amino-5-chloro-N-[2-(diethylamino)ethyl]-2-(2-methoxyethoxy)-benzamide], the IC50 was above 1 µM.

With `CCN(CC)CCNC(=O)c1cc(Cl)c(N)cc1OCCO` [Example 2, 4-Amino-5-chloro-N-[2-(diethylamino)ethyl]-2-(2-hydroxyethoxy)benzamide], the IC50 was above 1 µM.

`CCN(CC)CCNC(=O)c1cc(Cl)c(N)cc1OCC(OC)OC` [Example 3]: the IC50 was above 1 µM.

`CCN(CC)CCNC(=O)c1cc(Cl)c(N)cc1OCOCCOC` [Example 4] displayed an IC50 above 1 µM.

For `CCN(CC)CCNC(=O)c1cc(Cl)c(N)cc1OCC(C)=O` [Example 5, 4-Amino-5-chloro-N-[2-(diethylamino)ethyl]-2-(2-propanon-1-yl)-oxybenzamide], the IC50 is above 1 µM.

For `CCN(CC)CCNC(=O)c1cc(Cl)c(N)cc1OCC(=O)c1ccccc1` [Example 6, 4-Amino-2-(2-phenyl-2-oxoethoxy)-5-chloro-N-[2-(diethylamino)ethyl]benzamid], the IC50 was above 1 µM.

`CCN(CC)CCNC(=O)c1cc(Cl)c(N)cc1OC(C)C(C)=O` (stereo not drawn) [Example 7, 4-Amino-2-(butan-2-on-3-yl)oxy-5-chloro-N-[2-(diethylamino)-ethyl]benzamide] displayed an IC50 above 1 µM.

`CCN(CC)CCNC(=O)c1cc(Cl)c(N)cc1OC1CCCCC1=O` (stereo not drawn) [Example 9, 4-Amino-5-chloro-2-(cyclohexanon-2-yl)oxy-N-[2-(diethylamino)ethyl]benzamide] had an IC50 above 1 µM.

`CCN(CC)CCNC(=O)c1cc(Cl)c(N)cc1OCC(C)=NO` [Example 10, 4-Amino-5-chloro-N-[2-(diethylamino)ethyl]-2-[(2-hydroxyimino)propan-1-yl]oxybenzamide] had an IC50 above 1 µM.

For `CCN(CC)CCNC(=O)c1cc(Cl)c(N)cc1OCC(C)O` (stereo not drawn) [Example 12, 4-Amino-5-chloro-N-[2-(diethylamino)ethyl]-2-(2-hydroxypropan-1-yl)oxybenzamide], the IC50 was above 1 µM.

The compound `CCN(CC)CCNC(=O)c1cc(Cl)c(N)cc1OCC#N` [Example 13, 4-Amino-5-chloro-2-cyanomethoxy-N-[2-(diethylamino)ethyl]benzamide] registered an IC50 above 1 µM.

As for `CCN(CC)CCNC(=O)c1cc(Cl)c(N)cc1OC(C)C#N` (stereo not drawn) [Example 14], the IC50 was above 1 µM.

Turning to `CCN(CC)CCNC(=O)c1cc(Cl)c(N)cc1OCC(=O)OC` [Example 15, 4-Amino-5-chloro-N-[2-(diethylamino)ethyl]-2-(2-methoxy-2-oxoethoxy)benzamide], the IC50 is above 1 µM.

Regarding `CCN(CC)CCNC(=O)c1cc(Cl)c(N)cc1OCC1COC(C)(C)O1` (stereo not drawn) [Example 18, 4-Amino-5-chloro-N-[2-(diethylamino)ethyl]-2-(2,2-dimethyl-1,3-dioxalan-4-yl)methoxybenzamide], the IC50 is above 1 µM.

As to `CCN(CC)CCNC(=O)c1cc(Cl)c(N)cc1OCc1cc(C)no1` [Example 19, 4-Amino-5-chloro-N-[2-(diethylamino)ethyl]-2-(3-methylisoxazol-5-yl)methoxybenzamide], the IC50 is above 1 µM.

`C=CCC(Oc1cc(N)c(Cl)cc1C(=O)NCCN(CC)CC)C(C)=O` (stereo not drawn) [Example 24, 4-Amino-5-chloro-N-[2-(diethylamino)ethyl]-2-(5-hexen-2-on-3-yl)-oxybenzamide hydrochloride] came in with an IC50 above 1 µM.

For the compound `CCC(Oc1cc(N)c(Cl)cc1C(=O)NCCN(CC)CC)C(C)=O` (stereo not drawn) [Example 25, 4-Amino-5-chloro-N-[2-(diethylamino)ethyl]-2-(pentan-2-on-3-yl)-oxybenzamide], the IC50 is above 1 µM.

On to `CCC(=O)COc1cc(N)c(Cl)cc1C(=O)NCCN(CC)CC` [Example 26, 4-Amino-2-(2-butanon-1-yl)oxy-5-chloro-N-[2-(diethylamino)-ethyl]benzamide], for which the IC50 was above 1 µM.

`CCCC(=O)COc1cc(N)c(Cl)cc1C(=O)NCCN(CC)CC` [Example 27, 4-Amino-5-chloro-N-[2-(diethylamino)ethyl]-2-(pentan-2-on-1-yl)oxybenzamide]: the IC50 was above 1 µM.

For the compound `CCC(=O)C(C)Oc1cc(N)c(Cl)cc1C(=O)NCCN(CC)CC` (stereo not drawn) [Example 28, 4-Amino-5-chloro-2-(pentan-3-on-2-yl)oxy-N-(2-diethylaminoethyl)benzamide hydrochloride], the IC50 is above 1 µM.

Regarding `CCN(CC)CCNC(=O)c1cc(Cl)c(N)cc1OCC(=O)C(C)C` [Example 29], the IC50 was above 1 µM.

In turn, `CCN(CC)CCNC(=O)c1cc(Cl)c(N)cc1OCC(=O)Cc1ccccc1` [Example 30] gave an IC50 above 1 µM.

`CCN(CC)CCNC(=O)c1cc(Cl)c(N)cc1OC(C)(C)C(C)=O` [Example 31, 4-Amino-5-chloro-N-2-(diethylamino)ethyl]-2-[(3-methyl)butan-2-on-3-yl]oxybenzamide monohydrate] showed an IC50 above 1 µM.

In the case of `CCN(CC)CCNC(=O)c1cc(Cl)c(N)cc1OCC(O)Cc1ccccc1` (stereo not drawn) [Example 33, 4-Amino-5-chloro-N-[2-(diethylamino)ethyl]-2-[2-(2-hydroxy-3-phenylpropyl)]oxybenzamide], the IC50 was above 1 µM.

The compound `CCN(CC)CCNC(=O)c1cc(Cl)c(N)cc1OCC1OCCO1` [Example 43] had an IC50 above 1 µM.

Consider `CCN(CC)CCNC(=O)c1cc(Cl)c(N)cc1OCc1ccccn1` [Example 45, 4-Amino-5-chloro-N-[2-(diethylamino)ethyl]-2-(2-pyridinomethyl)-oxybenzamide], for which the IC50 was above 1 µM.

In turn, `CCN(CC)CCNC(=O)c1cc(Cl)c(N)cc1OCCOCCOC` [Example 46, 4-Amino-5-chloro-N-[2-(diethylamino)ethyl]-2-(2-methoxyethoxyethyl)oxybenzamide] displayed an IC50 above 1 µM.

`CCN(CC)CCNC(=O)c1cc(Cl)c(N)cc1OCC1=NCCN1` [Example 51, 4-Amino-5-chloro-N-[2-(diethylamino)ethyl]-2-(1H-4,5-dihydroimidazol-2-yl)methoxybenzamide] gave an IC50 above 1 µM.

Compound `CCN(CC)CCNC(=O)c1cc(Cl)c(N)cc1OCCC1(C)OCCO1` [Example 54] returned an IC50 above 1 µM.
